Data published in ChEMBL document CHEMBL1201862, “PubChem BioAssay data set” (2004).
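A five-concentration, 48-hour dose response in 96-well plates underlies each endpoint, interpolated linearly between surrounding concentrations. GI50 = concentration required for 50% inhibition of growth.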 The source made the active and inactive calls. Cut-off read from the data, not from the text of the source: active = GI50 up to about 1.1 µM and inactive = higher.

Tests used:
Assay in all cases: growth of human tumour cells (NCI), 48 h
[1] = system: LOX IMVI
[2] = system: RPMI-8226
[3] = system: COLO 205
[4] = system: UACC-62
[5] = system: TK-10
[6] = system: SF-268
[7] = system: SK-OV-3
[8] = system: SK-MEL-5
[9] = system: HT-29
[10] = system: NCI-H522
[11] = system: SF-539
[12] = system: HOP-62
[13] = system: K562
[14] = system: HOP-92
[15] = system: 786-0
[16] = system: A549
[17] = system: HCT-116

Measured: GI50

O=C(O)c1cc2c3ccccc3nc-2c[nH]1
inactive: [1] > 100 µM | [2] > 100 µM | [3] > 100 µM | [4] > 100 µM | [5] > 100 µM | [6] > 100 µM | [7] > 100 µM | [8] > 100 µM | [9] > 100 µM | [10] > 100 µM | [11] > 100 µM | [12] > 100 µM | [13] > 100 µM | [14] > 100 µM | [15] > 100 µM | [16] > 100 µM | [17] > 100 µM

CCOc1ccc(Nc2nc(C)c(C(=O)/C=C/c3ccc(Cl)cc3Cl)s2)cc1
inactive: [1] 16.8 µM | [2] 46.9 µM | [3] 17.8 µM | [4] 24 µM | [5] 22.6 µM | [6] 24.7 µM | [7] 28.6 µM | [8] 20 µM | [9] 19.7 µM | [10] 21.1 µM | [11] 27.8 µM | [12] 31.3 µM | [13] 33.2 µM | [14] 30 µM | [15] 19.5 µM | [16] 23.2 µM | [17] 21.1 µM

Cc1ccc(NC(=O)CC/C(CC(=O)C(C)(C)C)=N/NC(=O)C(N)=O)cc1C
inactive: [2] > 100 µM | [3] > 100 µM | [4] > 100 µM | [5] > 100 µM | [6] > 100 µM | [7] > 100 µM | [8] > 100 µM | [9] > 100 µM | [10] > 100 µM | [11] > 100 µM | [12] > 100 µM | [13] > 100 µM | [14] > 100 µM | [15] > 100 µM | [16] > 100 µM | [17] > 100 µM

Cc1c(C)n(COCCO)c2ncnc(N)c12
inactive: [2] > 100 µM | [3] > 100 µM | [5] > 100 µM | [6] > 100 µM | [7] > 100 µM | [8] > 100 µM | [9] > 100 µM | [10] > 100 µM | [11] > 100 µM | [13] > 100 µM | [14] > 100 µM | [15] > 100 µM | [16] > 100 µM

O=C1C=CC(=O)c2c1ccc1c3ccccc3n(-c3ccccn3)c21
inactive: [2] 25.6 µM | [3] 14.2 µM | [5] 16.7 µM | [6] 31.7 µM | [7] > 100 µM | [9] 28.4 µM | [10] 4.15 µM | [11] 32 µM | [13] 4.98 µM | [14] 15.6 µM | [15] 15.2 µM | [16] > 100 µM | [17] 13.2 µM

N#C/C(=C/c1ccsc1)C(=O)c1ccccc1
inactive: [1] > 100 µM | [2] > 100 µM | [3] > 100 µM | [4] > 100 µM | [5] > 100 µM | [6] > 100 µM | [7] > 100 µM | [8] > 100 µM | [9] > 100 µM | [10] > 100 µM | [11] > 100 µM | [12] > 100 µM | [13] > 100 µM | [14] > 100 µM | [15] > 100 µM | [16] > 100 µM | [17] > 100 µM

COC(=O)CCC(=O)CC(=O)C(=O)Nc1ccc(F)cc1
inactive: [1] > 100 µM | [2] > 100 µM | [3] > 100 µM | [4] > 100 µM | [5] > 100 µM | [6] > 100 µM | [7] > 100 µM | [8] > 100 µM | [9] > 100 µM | [10] > 100 µM | [11] > 100 µM | [12] > 100 µM | [13] > 100 µM | [14] > 100 µM | [15] > 100 µM | [16] > 100 µM | [17] > 100 µM

C[C@]12CCC3[C@@H](CC[C@@H]4c5nonc5CC[C@]34C)C1CCC2=O (stereo partly specified)
inactive: [1] 19.6 µM | [2] 17 µM | [3] 16.9 µM | [4] 17.3 µM | [5] 29 µM | [6] 33.6 µM | [7] 36.7 µM | [8] 16.9 µM | [9] 16.5 µM | [10] 16.2 µM | [11] 20.4 µM | [12] 40.6 µM | [13] 29.4 µM | [14] 20.8 µM | [15] 23.8 µM | [16] 27.8 µM | [17] 17 µM

C=CC1=CSNN1
inactive: [1] > 100 µM | [2] > 100 µM | [3] > 100 µM | [4] > 100 µM | [5] > 100 µM | [6] > 100 µM | [7] > 100 µM | [8] > 100 µM | [9] > 100 µM | [10] > 100 µM | [11] > 100 µM | [12] > 100 µM | [13] > 100 µM | [14] > 100 µM | [15] > 100 µM | [16] > 100 µM

COC(=O)C1=Cc2cn(S(=O)(=O)c3ccc(C)cc3)c3cccc(c23)C(C=C(C)C)N1C(C)=O (stereo unspecified)
inactive: [1] 71.1 µM | [3] 4.71 µM | [4] 47.4 µM | [5] 38.9 µM | [6] 93.5 µM | [7] > 100 µM | [8] 10.5 µM | [9] 27.9 µM | [10] 5.83 µM | [11] > 100 µM | [12] > 100 µM | [13] 8 µM | [14] 12.7 µM | [15] > 100 µM | [16] 13.6 µM | [17] 11.1 µM

CC(C)(C)OC(=O)NCCc1cccc2c1oc1c(CCC(=O)O)cccc12
inactive: [1] > 100 µM | [2] > 100 µM | [3] > 100 µM | [4] > 100 µM | [5] > 100 µM | [6] > 100 µM | [7] > 100 µM | [8] > 100 µM | [9] > 100 µM | [10] > 100 µM | [11] > 100 µM | [13] > 100 µM | [14] > 100 µM | [15] > 100 µM | [16] > 100 µM | [17] > 100 µM

O=C(O)CN(c1ccc(F)cc1)S(=O)(=O)c1ccccc1
inactive: [1] > 100 µM | [2] > 100 µM | [3] > 100 µM | [4] > 100 µM | [5] > 100 µM | [6] > 100 µM | [7] > 100 µM | [8] > 100 µM | [9] > 100 µM | [10] > 100 µM | [11] > 100 µM | [13] > 100 µM | [14] > 100 µM | [15] > 100 µM | [16] > 100 µM

O=C1c2ccccc2C(=O)c2c(O)c(O)cc(O)c21 [PURPURIN]
inactive: [1] 43.7 µM | [2] 25.8 µM | [3] 34 µM | [4] 26.1 µM | [5] 81.3 µM | [6] 42.4 µM | [7] 31.8 µM | [8] 37.9 µM | [10] 33.6 µM | [11] 17.8 µM | [12] 23.7 µM | [13] 36.5 µM | [14] 25.2 µM | [15] 25.8 µM | [16] 44.7 µM | [17] 24.5 µM
